# Data: patent US20260183350A1, “ANTIBIOTIC-RESISTANT BACTERIA” (priority 2022, published 2026)
# Columns and labels:
# [1] = test system: NDM-1 Enterobacter cloacae; assay: Carbon utilisation assay; format: cell-based; conditions: M9 minimal medium, 0.5% (w/v) carbon source
# Protocol: (§1) New Delhi Metallo-β-lactamase 1 (NDM-1) Escherichia coli, NDM-1 Klebsiella pneumoniae, and NDM-1 Enterobacter cloacae were isolated from patients with intestinal CRE colonisation from the Imperial College Healthcare NHS Trust via rectal swab (REC ref. 19/LO/0112). The species were assigned by matrix assisted laser desorption ionization-time of flight (MALDI-TOF) mass spectrometry and later confirmed with 16S rRNA gene sequencing. CRE status was determined using X-pert Carba-R PCR detection (Cepheid, Sunnyvale, CA, USA), (Otter, J. A. et al. Detecting carbapenemase-producing Enterobacterales (CPE): an evaluation of an enhanced CPE infection control and screening programme in acute care. J Antimicrob Chemother 75, 2670-2676 (2020)).
# (§2) Growth of CRE isolates on sole carbon or nitrogen sources was tested by inoculating each CRE isolate into a minimal medium supplemented with the nutrient of interest. First, CRE isolates were passaged from frozen glycerol stocks on Reasoner's 2A agar (R2A) plates. Cells were then suspended in M9 minimal media to a turbidity of 42% using a Turbidimeter (Biolog Inc.), then diluted a further 1 in 6 to inoculate the carbon or nitrogen utilisation assays. M9 minimal media contained the following (at final concentrations): 22 mM KH2PO4, 42 mM Na2HPO4, 9 mM NaCl, 0.49 mM MgSO4·7H2O, 0.09 mM CaCl2), 0.011 mM FeSO4·7H2O. For the carbon assays the M9 minimal medium was also supplemented with 0.1% (w/v) NH4Cl (as the nitrogen source) and the carbon sources were individually tested at 0.5% (w/v) concentration. For the nitrogen assays the M9 minimal medium was also supplemented with 0.5% (w/v) glucose (as the carbon source) and the nitrogen sources were individually tested at 0.1% (w/v) concentration. Cultures were incubated anaerobically and aerobically in a plate reader and OD600 readings were collected every 15 minutes for 24 hours.
# (§3) Growth curves were analysed in Python (v3.6.5) using the AMiGA software (Midani, F. S., Collins, J. & Britton, R. A. AMiGA: Software for Automated Analysis of Microbial Growth Assays. mSystems 6, e0050821 (2021)). Growth of each isolate was measured with 6 wells from 2-3 independent experiments. Growth curves were normalised to the no substrate control using the subtraction method. AMiGA performed Gaussian Process regression to test differential growth between the substrate and the no substrate control. The functional difference in the OD (and its credible interval) was also computed between the substrate and the no substrate control.
# NDM-1 Escherichia coli [2] = assay: Carbon utilisation assay; format: cell-based; conditions: M9 minimal medium, 0.5% (w/v) carbon source
# Protocol: as §1, §2, §3
# [3] = test system: NDM-1 Klebsiella pneumoniae; assay: Carbon utilisation assay; format: cell-based; conditions: M9 minimal medium, 0.5% (w/v) carbon source
# Protocol: as §1, §2, §3
# [4] = test system: vancomycin-resistant E. faecium; assay: VRE nutrient utilization protocol: carbon sources; format: cell-based, Enterococcus faecium; conditions: aerobic; VRE minimal medium
# Protocol: (§4) VRE minimal media consists of potassium phosphate monobasic (4 g/L), potassium phosphate dibasic (14 g/L), sodium citrate (1 g/L), magnesium sulphate (0.2 g/L), ammonium sulphate (2 g/L), adenosine (0.04 g/L), thymine (0.04 g/L), Kao and Michayluk vitamin solution [Sigma, K3129, 50× Stock](5×), glucose (1 g/L) and amino acid solution [Sigma, R7131, RPMI-1640, 50×](25×). If the study was performed under anaerobic conditions, fumarate (5.2 g/L) was added to increase growth of VRE strains. Carbon-free minimal media was prepared by leaving out glucose while nitrogen-free minimal media was prepared without the amino acid solution. Media was filter sterilized with a 0.22 micron filter and used immediately aerobically or degassed overnight if used anaerobically.
# (§5) VRE strains were grown on R2A overnight before the cells were suspended in 0.9% saline to an OD of 0.38 (λ=595 nm). A 10% dilution of the cell suspension was prepared using VRE minimal media to achieve a final well OD of […] (λ=595 nm) greater than the sterile media OD. Both carbon and nitrogen source utilization were evaluated by adding the inoculated media and a filter-sterilised nutrient source solution into a well in a 1:1 ration to a final volume of 100 μL in aerobic tests and 200 μL in anaerobic tests. Carbon sources were tested individually and compared to a carbon-free control. To test nitrogen source utilization, a nitrogen source solution was prepared containing L-alanine (2 g/L), L-arginine (2.5 g/L, L-asparagine (0.71 g/L), L-aspartate (0.25 g/L), L-cysteine (0.625 g/L), L-glutamate (0.25 g/L), L-Glycine (0.125 g/L), L-histidine (0.1875 g/L), L-isoleucine (0.625 g/L), L-leucine (0.625 g/L), L-lysine HCl (0.5 g/L), L-methionine (0.1875 g/L), L-phenylalanine (0.1875 g/L), L-proline (0.25 g/L), L-serine (0.375 g/L), L-threonine (0.25 g/L), L-tryptophan (0.0625 g/L), L-tyrosine (0.29 g/L), L-valine (0.25 g/L), N-acetylglucosamine (2 g/L), and uracil (2.5 g/L). To test the strains' ability to utilize individual nitrogen sources, separate solutions were prepared eliminating one nitrogen source each. The change in growth compared to the complete nitrogen source solution control was used to determine nitrogen utilization. All carbon and nitrogen sources were tested in a technical triplicate for each biological replicate. Aerobic plates were incubated with a plate seal while anaerobic plates were not. The aerobic plate reader was set to read the plate (λ=595 nm, 37° C., 22 flashes per well, orbital shaking of 100 rpm for 15 s prior to each read) every 15 minutes for 24 hours. The anaerobic plate reader read the plate (λ=595 nm, 37° C., stationary) every 15 minutes for 24 hours.
# [5] = test system: NDM-1 Enterobacter cloacae; assay: Nutrient preference assay (nutrient mixture); format: cell-based; conditions: M9 with […] of each nutrient, up to 24 hours
# Protocol: as §1
# (§6) CRE isolates were passaged once from frozen glycerol stocks on R2A plates. Cells were suspended in M9 minimal media to a turbidity of 42% using a Turbidimeter (Biolog Inc.), then diluted 1 in 6 to inoculate the nutrient preference assays. M9 minimal media was supplemented with 0.015% of each of the following: L-arabinose, D-fructose, L-fucose, D-galactose, D-glucose, D-mannose, D-ribose, D-xylose, N-acetylglucosamine, D-maltose, sucrose, D-trehalose, L-alanine, L-arginine, L-aspartate, L-glutamate, L-glycine, L-isoleucine, L-leucine, L-lysine, L-methionine, L-phenylalanine, L-proline, L-threonine, L-tryptophan, L-tyrosine, L-valine, uracil, and succinate. Cultures were incubated anaerobically and aerobically in a plate reader and OD600 readings were collected every 15 minutes for 24 hours. Cultures were also incubated anaerobically and aerobically for 24 h and samples were collected at 0, 4, 8, and 24 hours post-inoculation for 1H-NMR spectroscopy. Changes in nutrients and metabolites by CRE isolates was compared to the sterile media control over time using a two-way mixed ANOVA followed by pairwise comparisons with Bonferroni correction. […]
# NDM-1 Escherichia coli [6] = assay: Nutrient preference assay (nutrient mixture); format: cell-based; conditions: M9 with […] of each nutrient, up to 24 hours
# Protocol: as §1, §6
# [7] = test system: NDM-1 Klebsiella pneumoniae; assay: Nutrient preference assay (nutrient mixture); format: cell-based; conditions: M9 with […] of each nutrient, up to 24 hours
# Protocol: as §1, §6
# [8] = test system: NDM-1 Enterobacter cloacae; assay: Nitrogen utilisation assay; format: cell-based; conditions: aerobic; M9 minimal medium with glucose, 0.1% (w/v) nitrogen source
# Protocol: as §1, §2, §3
# NDM-1 Escherichia coli [9] = assay: Nitrogen utilisation assay; format: cell-based; conditions: aerobic; M9 minimal medium with glucose, 0.1% (w/v) nitrogen source
# Protocol: as §1, §2, §3
# [10] = test system: NDM-1 Klebsiella pneumoniae; assay: Nitrogen utilisation assay; format: cell-based; conditions: aerobic; M9 minimal medium with glucose, 0.1% (w/v) nitrogen source
# Protocol: as §1, §2, §3
# [11] = test system: vancomycin-resistant E. faecium; assay: VRE nutrient utilization protocol: nitrogen sources, leave-one-out; format: cell-based, Enterococcus faecium; conditions: aerobic; leave-one-out from nitrogen source mixture in minimal medium
# Protocol: as §4, §5
# [12] = test system: vancomycin-resistant E. faecalis; assay: as above; format: cell-based, Enterococcus faecalis; conditions: aerobic; leave-one-out from nitrogen source mixture in minimal medium
# Protocol: as §4, §5
SMILES,Use as sole carbon source to support E. cloacae growth ([1]; anaerobic),Use as sole carbon source to support E. coli growth (NDM-1 Escherichia coli [2]; anaerobic),Use as sole carbon source to support K. pneumoniae growth ([3]; anaerobic),Use as sole carbon source to support E. faecium growth [4],Utilisation of nutrient by E. cloacae from nutrient mixture (1H-NMR) ([5]; anaerobic),Utilisation of nutrient by E. coli from nutrient mixture (1H-NMR) (NDM-1 Escherichia coli [6]; anaerobic),Utilisation of nutrient by K. pneumoniae from nutrient mixture (1H-NMR) ([7]; anaerobic),Use as sole carbon source to support E. cloacae growth ([1]; aerobic),Use as sole carbon source to support E. coli growth (NDM-1 Escherichia coli [2]; aerobic),Use as sole carbon source to support K. pneumoniae growth ([3]; aerobic),Use as sole nitrogen source to support E. cloacae growth [8],Use as sole nitrogen source to support E. coli growth (NDM-1 Escherichia coli [9]),Use as sole nitrogen source to support K. pneumoniae growth [10],Utilisation of nutrient by E. cloacae from nutrient mixture (1H-NMR) ([5]; aerobic),Utilisation of nutrient by E. coli from nutrient mixture (1H-NMR) (NDM-1 Escherichia coli [6]; aerobic),Utilisation of nutrient by K. pneumoniae from nutrient mixture (1H-NMR) ([7]; aerobic),Use as nitrogen source to support E. faecium growth [11],Use as nitrogen source to support E. faecalis growth [12]
"O=C[C@H](O)[C@@H](O)[C@@H](O)CO [arabinose, L-arabinose]",could use,could use,could use,could use,–,–,–,–,–,–,–,–,–,–,–,–,–,–
"C[C@H](N)C(=O)O [alanine, L-alanine]",–,–,–,–,not utilised,not utilised,not utilised,able to grow,able to grow,able to grow,able to grow,able to grow,able to grow,–,–,–,–,–
"NCCCC[C@H](N)C(=O)O [lysine, L-lysine]",–,–,–,–,produced low levels,high utilisation,high utilisation,–,–,–,able to grow,able to grow,able to grow,produced low levels,moderate utilisation,high utilisation,could use,could use
"N[C@@H](CCC(=O)O)C(=O)O [glutamate, L-glutamate]",–,–,–,–,–,–,–,able to grow,–,able to grow,able to grow,able to grow,able to grow,moderate utilisation,moderate utilisation,moderate utilisation,could use,could use
"N[C@@H](Cc1c[nH]c2ccccc12)C(=O)O [tryptophan, L-tryptophan]",–,–,–,could use,not utilised,moderate utilisation,not utilised,–,–,–,–,able to grow,–,not utilised,high utilisation,not utilised,could use,could use
"O=C[C@H](O)[C@@H](O)[C@H](O)CO [xylose, D-xylose]",could use,could use,could use,–,–,–,–,–,–,–,–,–,–,–,–,–,–,–
